The numbers were not newly measured in US7632656B2, “High performance liquid chromatography with an aqueous mobile phase for analysis of drug and its metabolite” (Cellseed Inc., priority 2003, dated 2009), which cites them from elsewhere.

The logP is the decadic logarithm of the partition coefficient of the neutral form, usually between octanol and water.

The conditions of this series: listed with the structures of the CYP probe drugs; method not stated.

With `CC12CCC(=O)C=C1CCC1C2CCC2(C)C(O)CCC12` (centres unmarked) [Testosterone], the logP is reported as 2.899.
On to `CCOc1ccc(NC(C)=O)cc1` [Phenacetin], for which the logP is 0.985.
